Source: PubChem BioAssay AID328 (DTP/NCI, 2004)
“And” between values parts separate entries of the source, which are not always exact repeats. Equal values may be shown once. Toxic doses and inconclusive results are not listed.

Test system: BDF1 mice, P388 leukemia ip, median survival T/C
Experiment: NCI In Vivo Anticancer Drug Screen. Data for tumor model P388 Leukemia (intraperitoneal) in B6D2F1 (BDF1) mice
Details: endpoint: median survival time, higher = longer survival
Method in brief: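 Steps: implant the tumour, treat one group with compound and another with vehicle, record survival, then divide treated by control.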

[1] = dose: 50.0 mg/kg/injection, schedule: Q01DX009 (ip), vehicle: saline with Tween-80
[2] = dose: 100.0 mg/kg/injection, schedule: Q01DX009 (ip), vehicle: saline with Tween-80
[3] = dose: 200.0 mg/kg/injection, schedule: Q01DX009 (ip), vehicle: saline with Tween-80
[4] = dose: 12.5 mg/kg/injection, schedule: Q01DX009 (ip), vehicle: Klucel (hydroxypropylcellulose) (HPC)
[5] = dose: 25.0 mg/kg/injection, schedule: Q01DX009 (ip), vehicle: Klucel (hydroxypropylcellulose) (HPC)
[6] = dose: 200.0 mg/kg/injection, schedule: Q04DX003 (ip), vehicle: Klucel (hydroxypropylcellulose) (HPC)
[7] = dose: 25.0 mg/kg/injection, schedule: Q01DX009 (ip), vehicle: water
[8] = dose: 25.0 mg/kg/injection, schedule: Q01DX009 (ip), vehicle: saline
[9] = dose: 100.0 mg/kg/injection, schedule: Q04DX003 (ip), vehicle: saline with Tween-80
[10] = dose: 200.0 mg/kg/injection, schedule: Q04DX003 (ip), vehicle: saline with Tween-80
[11] = dose: 400.0 mg/kg/injection, schedule: Q04DX003 (ip), vehicle: saline with Tween-80
[12] = dose: 25.0 mg/kg/injection, schedule: Q04DX003 (ip), vehicle: saline with Tween-80
[13] = dose: 50.0 mg/kg/injection, schedule: Q01DX009 (ip), vehicle: saline

In the case of `CCOc1ccc(N2CC(=O)N3CCCC(c4ccccc4)N3C(=O)C2)cc1` (centres undefined), the T/C (dose: 50.0 mg/kg/injection, schedule: Q01DX005 (ip), vehicle: saline with Tween-80) is reported as 108 % of control, the T/C (dose: 100.0 mg/kg/injection, schedule: Q01DX005 (ip), vehicle: saline with Tween-80) is reported as 94 % of control and the T/C (dose: 200.0 mg/kg/injection, schedule: Q01DX005 (ip), vehicle: saline with Tween-80) is reported as 94 % of control.
`Oc1ccccc1-c1nnc2n1N=C(c1ccc(-c3ccccc3)cc1)CS2` was tested, and the T/C [1] was 98 % of control, the T/C [2] was 98 % of control and the T/C [3] was 92 % of control.
With `Cc1ncc(-c2ccc([N+](=O)[O-])cc2)o1` the T/C [4] was 87 % of control, the T/C (dose: 12.5 mg/kg/injection, schedule: Q04DX003 (ip), vehicle: Klucel (hydroxypropylcellulose) (HPC)) was 96 % of control and the T/C [5] was 91 % of control. For the same compound, the T/C (dose: 25.0 mg/kg/injection, schedule: Q04DX003 (ip), vehicle: Klucel (hydroxypropylcellulose) (HPC)) was 92 % of control, the T/C (dose: 50.0 mg/kg/injection, schedule: Q01DX009 (ip), vehicle: Klucel (hydroxypropylcellulose) (HPC)) was 91 % of control and the T/C (dose: 50.0 mg/kg/injection, schedule: Q04DX003 (ip), vehicle: Klucel (hydroxypropylcellulose) (HPC)) was 103 % of control. For the same compound, the T/C [6] was 92 % of control.
For `Cc1cc(N(CCC(=O)O)CCC(=O)O)ccc1/C=C/c1ccc2cc(Cl)ccc2[n+]1C`, the T/C (dose: 12.5 mg/kg/injection, schedule: Q01DX001 (ip), vehicle: saline with Tween-80) was 96 % of control, the T/C (dose: 25.0 mg/kg/injection, schedule: Q01DX001 (ip), vehicle: saline with Tween-80) was 96 % of control and the T/C (dose: 50.0 mg/kg/injection, schedule: Q01DX001 (ip), vehicle: saline with Tween-80) was 94 % of control.
`CCCCCCCCCCCCCCCCCCOc1ccccn1` was tested, and the T/C (dose: 3.12 mg/kg/injection, schedule: Q01DX009 (ip), vehicle: Klucel (hydroxypropylcellulose) (HPC)) was 100 % of control, the T/C (dose: 6.25 mg/kg/injection, schedule: Q01DX009 (ip), vehicle: Klucel (hydroxypropylcellulose) (HPC)) was 104 % of control and the T/C [4] was 104 % of control. The T/C (dose: 100.0 mg/kg/injection, schedule: Q04DX003 (ip), vehicle: Klucel (hydroxypropylcellulose) (HPC)) was 95 % of control, the T/C [6] was 100 % of control and the T/C (dose: 400.0 mg/kg/injection, schedule: Q01DX009 (ip), vehicle: Klucel (hydroxypropylcellulose) (HPC)) was 89 % of control. For the same compound, the T/C (dose: 400.0 mg/kg/injection, schedule: Q04DX003 (ip), vehicle: Klucel (hydroxypropylcellulose) (HPC)) was 95 % of control.
`COc1c(Cl)cc(Cl)cc1Cl` was tested, and the T/C (dose: 100.0 mg/kg/injection, schedule: Q01DX009 (ip), vehicle: other) was 90 % of control, the T/C (dose: 100.0 mg/kg/injection, schedule: Q04DX003 (ip), vehicle: other) was 90 % of control and the T/C (dose: 200.0 mg/kg/injection, schedule: Q01DX009 (ip), vehicle: other) was 100 % of control. For the same compound, the T/C (dose: 200.0 mg/kg/injection, schedule: Q04DX003 (ip), vehicle: other) was 105 % of control, the T/C (dose: 400.0 mg/kg/injection, schedule: Q01DX009 (ip), vehicle: other) was 114 % of control and the T/C (dose: 400.0 mg/kg/injection, schedule: Q04DX003 (ip), vehicle: other) was 110 % of control.
In the case of `COc1cccc2c1C(=O)c1c(O)c3c(c(O)c1C2=O)CC(O)(/C(C)=N/NC(=O)CCCCCCCCC(=O)N/N=C(\C)C1(O)Cc2c(O)c4c(c(O)c2C(OC2CC(N)C(O)C(C)O2)C1)C(=O)c1c(OC)cccc1C4=O)CC3OC1CC(N)C(O)C(C)O1` (centres undefined), the T/C (dose: 3.13 mg/kg/injection, schedule: Q01DX009 (ip), vehicle: water) is reported as 172 % of control, the T/C (dose: 6.25 mg/kg/injection, schedule: Q01DX009 (ip), vehicle: water) is reported as 210 % of control and the T/C [7] is reported as 88 % of control.
For `CC1=CCC(CC(N)=O)C1(C)C` (centres undefined), the T/C (dose: 100.0 mg/kg/injection, schedule: Q01DX001 (ip), vehicle: saline with Tween-80) was 105 % of control, the T/C (dose: 200.0 mg/kg/injection, schedule: Q01DX001 (ip), vehicle: saline with Tween-80) was 103 % of control and the T/C (dose: 400.0 mg/kg/injection, schedule: Q01DX001 (ip), vehicle: saline with Tween-80) was 92 % of control.
In the case of `Cc1cccc[n+]1CCC(N)=O`, the T/C (dose: 6.25 mg/kg/injection, schedule: Q01DX009 (ip), vehicle: saline) is reported as 92 % of control, the T/C (dose: 12.5 mg/kg/injection, schedule: Q01DX009 (ip), vehicle: saline) is reported as 117 % of control and the T/C [8] is reported as 103 % of control.
In the case of `CCOC(=O)C(CC)(CCC(C)C)C(=O)OCC`, the T/C (dose: 25.0 mg/kg/injection, schedule: Q01DX009 (ip), vehicle: saline with Tween-80) is reported as 95 % of control, the T/C [1] is reported as 95 % of control and the T/C [2] is reported as 100 % of control.
In the case of `CC(C)CC(Br)C(=O)NC(CC(C)C)C(=O)O` (centres undefined), the T/C [9] is reported as 104 % of control, the T/C [10] is reported as 100 % of control and the T/C [11] is reported as 109 % of control.
`c1ccc2c(NCCCCCCNc3c4ccccc4nc4ccccc34)c3ccccc3nc2c1` was tested, and the T/C (dose: 0.31 mg/kg/injection, schedule: Q01DX009 (ip), vehicle: lactic acid) was 110 % of control, the T/C (dose: 0.62 mg/kg/injection, schedule: Q01DX009 (ip), vehicle: lactic acid) was 123 % of control and the T/C (dose: 1.25 mg/kg/injection, schedule: Q01DX009 (ip), vehicle: lactic acid) was 163 % of control. For the same compound, the T/C (dose: 2.5 mg/kg/injection, schedule: Q01DX009 (ip), vehicle: lactic acid) was 180 % of control and the T/C (dose: 5.0 mg/kg/injection, schedule: Q01DX009 (ip), vehicle: lactic acid) was 178 % of control.
In the case of `COC(=O)/C=C1\Sc2ccc(Cl)cc2NC1=O`, the T/C [1] is reported as 93 % of control, the T/C [2] is reported as 86 % of control and the T/C [3] is reported as 93 % of control.
In the case of `Cc1cc(C)cc(C(C)C)c1`, the T/C [1] is reported as 101 % of control, the T/C [2] is reported as 116 % of control and the T/C [3] is reported as 122 % of control.
For `FC(F)(F)c1ccc2c(c1)N(CCCN(CCCl)CCCl)c1ccccc1S2`, the T/C (dose: 3.1 mg/kg/injection, schedule: Q04DX003 (ip), vehicle: saline with Tween-80) was 112 % of control, the T/C (dose: 6.25 mg/kg/injection, schedule: Q04DX003 (ip), vehicle: saline with Tween-80) was 122 % of control and the T/C [12] was 119 % of control.
In the case of `CC1(C)CCC(=O)O1`, the T/C [7] is reported as 104 % of control, the T/C (dose: 50.0 mg/kg/injection, schedule: Q01DX009 (ip), vehicle: water) is reported as 104 % of control and the T/C (dose: 100.0 mg/kg/injection, schedule: Q01DX009 (ip), vehicle: water) is reported as 91 % of control. The T/C (dose: 200.0 mg/kg/injection, schedule: Q01DX009 (ip), vehicle: water) was 103 % of control and the T/C (dose: 400.0 mg/kg/injection, schedule: Q01DX009 (ip), vehicle: water) was 91 % of control.
With `N/C(=N\OS(=O)(=O)c1ccccc1)Oc1ccccc1` the T/C [9] was 97 % of control, the T/C [10] was 95 % of control and the T/C [11] was 99 % of control.
In the case of `CC(=O)Nc1c(Cl)c(Cl)c2c(c1Cl)Cc1cc(Br)ccc1-2`, the T/C (dose: 8.25 mg/kg/injection, schedule: Q01DX009 (ip), vehicle: Klucel (hydroxypropylcellulose) (HPC)) is reported as 100 % of control and 113 % of control, the T/C [4] is reported as 100 % of control and 118 % of control and the T/C (dose: 18.75 mg/kg/injection, schedule: Q01DX009 (ip), vehicle: Klucel (hydroxypropylcellulose) (HPC)) is reported as 100 % of control and 109 % of control. For the same compound, the T/C [5] was 110 % of control, the T/C [8] was 90 % of control and the T/C [13] was 95 % of control.
`O=C(/C=C/c1ccc(OCc2ccccc2)cc1)c1cccc(F)c1` was tested, and the T/C [1] was 100 % of control, the T/C [2] was 100 % of control and the T/C [3] was 92 % of control.
In the case of `CN(CCS)Cc1ccccc1`, the T/C [12] is reported as 100 % of control, the T/C (dose: 50.0 mg/kg/injection, schedule: Q04DX003 (ip), vehicle: saline with Tween-80) is reported as 104 % of control and the T/C [9] is reported as 100 % of control.
In the case of `CCB(CC)OCC1OB(CC)OC1C1OB(CC)OC1COB(CC)CC` (centres undefined), the T/C [13] is reported as 99 % of control, the T/C (dose: 100.0 mg/kg/injection, schedule: Q01DX009 (ip), vehicle: saline) is reported as 97 % of control and the T/C (dose: 200.0 mg/kg/injection, schedule: Q01DX009 (ip), vehicle: saline) is reported as 99 % of control.
For `COc1ccc(C2C=CC(c3ccccc3)C(c3ccccc3)C2[N+](=O)[O-])cc1OC` (centres undefined), the T/C [9] was 100 % of control, the T/C [10] was 100 % of control and the T/C [11] was 90 % of control.
